Biological target: T1, hSlo3+hLRRC52 (Homo sapiens, UniProt A8MYU2)
T1 sequence (A8MYU2 1-1149): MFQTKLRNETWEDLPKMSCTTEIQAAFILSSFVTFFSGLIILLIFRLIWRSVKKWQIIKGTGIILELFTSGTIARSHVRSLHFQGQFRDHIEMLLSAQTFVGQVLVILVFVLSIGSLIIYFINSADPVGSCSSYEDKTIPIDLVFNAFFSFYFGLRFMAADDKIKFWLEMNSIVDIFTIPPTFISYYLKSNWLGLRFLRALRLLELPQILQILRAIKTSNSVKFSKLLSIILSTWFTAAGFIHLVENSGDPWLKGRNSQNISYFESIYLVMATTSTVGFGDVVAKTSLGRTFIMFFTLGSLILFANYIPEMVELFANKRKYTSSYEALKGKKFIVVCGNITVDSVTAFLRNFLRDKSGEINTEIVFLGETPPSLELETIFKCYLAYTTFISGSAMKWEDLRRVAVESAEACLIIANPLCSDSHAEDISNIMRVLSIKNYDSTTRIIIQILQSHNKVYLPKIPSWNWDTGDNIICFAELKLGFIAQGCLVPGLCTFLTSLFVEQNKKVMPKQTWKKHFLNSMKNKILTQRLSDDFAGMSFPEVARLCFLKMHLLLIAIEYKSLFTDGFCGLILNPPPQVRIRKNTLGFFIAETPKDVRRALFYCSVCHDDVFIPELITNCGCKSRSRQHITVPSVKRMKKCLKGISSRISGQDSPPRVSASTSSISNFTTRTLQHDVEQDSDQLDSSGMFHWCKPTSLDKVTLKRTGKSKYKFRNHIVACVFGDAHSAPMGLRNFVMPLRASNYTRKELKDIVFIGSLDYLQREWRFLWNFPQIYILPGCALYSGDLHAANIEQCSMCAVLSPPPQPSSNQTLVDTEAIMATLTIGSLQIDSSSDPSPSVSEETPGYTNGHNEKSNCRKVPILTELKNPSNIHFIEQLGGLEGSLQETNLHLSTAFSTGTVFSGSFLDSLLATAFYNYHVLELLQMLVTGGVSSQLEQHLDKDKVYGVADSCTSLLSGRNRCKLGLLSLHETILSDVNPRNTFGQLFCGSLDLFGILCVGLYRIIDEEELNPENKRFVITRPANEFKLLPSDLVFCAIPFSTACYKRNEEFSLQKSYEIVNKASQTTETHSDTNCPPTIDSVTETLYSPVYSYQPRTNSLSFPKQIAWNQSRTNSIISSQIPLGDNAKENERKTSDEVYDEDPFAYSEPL
T1 sequence (Q8N7C0 24-313 partner): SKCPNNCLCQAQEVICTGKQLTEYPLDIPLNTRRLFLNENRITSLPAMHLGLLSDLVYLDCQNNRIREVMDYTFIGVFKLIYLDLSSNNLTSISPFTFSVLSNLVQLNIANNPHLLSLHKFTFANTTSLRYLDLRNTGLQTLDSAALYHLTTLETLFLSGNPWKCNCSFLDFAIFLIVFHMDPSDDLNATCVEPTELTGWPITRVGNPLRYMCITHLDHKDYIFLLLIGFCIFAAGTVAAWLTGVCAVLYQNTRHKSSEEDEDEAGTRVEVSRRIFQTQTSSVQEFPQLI
Test: whole-cell patch clamp, HEK293, voltage ramp
Assay type: cell-based
Conditions: HEK293, read-out: % inhibition at 20 mM

CC[N+](CC)(CC)CC [TEA]
inhibition at 20000 µM: 41 ± 5.19%

From article PMC5343058 (The Korean Journal of Physiology & Pharmacology : Official …, 2017)
